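Five compound concentrations were applied to cells in 96-well plates for 48 hours; endpoints were derived by simple linear interpolation of the resulting dose-response curve. Here, GI50 denotes the concentration required for 50% inhibition of growth.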 Activity calls are given as the source filed them. Rule as the data show it: active = GI50 up to about 1.1 µM and inactive = higher.

Some test systems named below: COLO 205; HCC 2998; HOP-62; K562; MOLT-4; Malme-3M; OVCAR-4; SF-295; SF-539; SK-MEL-28; SK-MEL-5; SNB-75; U-251; UACC-62; UO-31; SR.
What all share (test): NCI-60 cell line screen, 48 h

Consider `CC(C)(C)C(=O)ON1N=NC2C3CC(OCc4ccccc4)(OCc4ccccc4)C(O3)C21` (centres undefined), for which the GI50 in the assay on COLO 205 was 18.7 µM (inactive); with HCC 2998, 14.2 µM (inactive); with HOP-62 it was 28.3 µM (inactive); in the assay on K562, 11.7 µM (inactive); in the assay with MOLT-4, 3.41 µM (inactive); with Malme-3M it was 16.3 µM (inactive). For the same compound, the GI50 in the assay with OVCAR-4 was 22.6 µM (inactive); in the assay on SF-295, 22.1 µM (inactive); in the assay with SF-539 it was 16.3 µM (inactive); in the assay on SK-MEL-28, 19.1 µM (inactive); with SK-MEL-5, 15.6 µM (inactive); in the assay with SNB-75 it was 24.1 µM (inactive). Further, the GI50 with U-251 is 16.9 µM (inactive); in the assay with UACC-62, 18.5 µM (inactive); with UO-31, 22.4 µM (inactive).
Turning to `N#CC(C(=O)CCC(=O)Nc1cccc(C(F)(F)F)c1)c1ccccc1` (centres undefined), the GI50 in the assay on HCC 2998, in the assay with HOP-62, in the assay on K562, in the assay on MOLT-4, in the assay on Malme-3M and in the assay with OVCAR-4 was > 100 µM (inactive) throughout. Moreover, the GI50 with SF-295, in the assay on SF-539, in the assay with SK-MEL-28, in the assay with SK-MEL-5, with SNB-75 and with U-251 was > 100 µM (inactive) throughout. Moreover, the GI50 with UACC-62 and in the assay on UO-31 was > 100 µM (inactive) each time.
On to `O=C(CCCCCCCCCCc1ccccc1)C1=C(O)CC(O)CC1=O` (centres undefined), for which the GI50 in the assay with COLO 205 is 45.2 µM (inactive); in the assay with HCC 2998 it was 34.9 µM (inactive); with HOP-62, > 100 µM (inactive); in the assay on K562, 30.5 µM (inactive); in the assay with MOLT-4, 40.5 µM (inactive); in the assay with OVCAR-4 it was 74.3 µM (inactive). Also, the GI50 was 56.8 µM (inactive) in the assay on SF-295; 86.7 µM (inactive) in the assay with SF-539; 72.4 µM (inactive) in the assay on SK-MEL-28; 48 µM (inactive) in the assay with SK-MEL-5; > 100 µM (inactive) with SNB-75; 40.9 µM (inactive) in the assay with SR. Further, the figures for the GI50 in the assay with U-251, with UACC-62 and in the assay on UO-31 were 55.1 µM (inactive), 59.8 µM (inactive) and 60.5 µM (inactive), respectively.
For the compound `COc1cc(/C=C/c2csnn2)cc(OC)c1OC`, the GI50 with HCC 2998, with HOP-62, in the assay with K562, in the assay with MOLT-4, with Malme-3M and in the assay on OVCAR-4 was > 100 µM (inactive) each time. For the same compound, the GI50 with SF-295, in the assay on SF-539, in the assay on SK-MEL-28, in the assay on SK-MEL-5, in the assay with SR and in the assay on U-251 was > 100 µM (inactive) in each case. Besides, the GI50 with UACC-62 and with UO-31 was > 100 µM (inactive) in each case.
With `CC(=O)CC(=O)/C=C/c1cccs1`, the GI50 with COLO 205 is > 100 µM (inactive); in the assay on HOP-62, > 100 µM (inactive); in the assay on K562, 47.1 µM (inactive); in the assay on MOLT-4, > 100 µM (inactive); in the assay with Malme-3M, 58.2 µM (inactive); with OVCAR-4 it was 87.5 µM (inactive). In addition, the GI50 with SF-295 is > 100 µM (inactive); in the assay on SF-539, 31.6 µM (inactive); with SK-MEL-5, 37.1 µM (inactive); in the assay with SR, 48.1 µM (inactive); with U-251, > 100 µM (inactive); with UACC-62 it was 44.6 µM (inactive). Also, the GI50 in the assay with UO-31 was 93.3 µM (inactive).
`O=C(O)/C=C/c1nc2ccccc2c(=O)o1`: the GI50 in the assay with COLO 205, in the assay with HCC 2998, with K562, in the assay with MOLT-4, in the assay on OVCAR-4 and in the assay on SF-295 was > 100 µM (inactive) in each case. Besides, the GI50 in the assay with SF-539, in the assay with SK-MEL-28, in the assay with SK-MEL-5, with SNB-75, with U-251 and in the assay on UACC-62 was > 100 µM (inactive) in each case. The GI50 in the assay on UO-31 is > 100 µM (inactive).
As to `CN(C)CCNC(=O)c1cccc2nc3ccc4cccnc4c3nc12`, the GI50 with COLO 205 was 0.232 µM (active); in the assay with HCC 2998 it was 0.635 µM (active); in the assay with HOP-62 it was 0.393 µM (active); with K562 it was 0.346 µM (active); in the assay with MOLT-4, 0.0441 µM (active); in the assay on OVCAR-4, 0.468 µM (active). Also, the GI50 in the assay on SF-295 was 0.644 µM (active); in the assay on SF-539, 0.19 µM (active); in the assay on SK-MEL-28 it was 0.944 µM (active); in the assay on SK-MEL-5 it was 0.343 µM (active); with SNB-75, 0.507 µM (active); in the assay on U-251, 0.405 µM (active). Moreover, the GI50 with UACC-62 was 0.457 µM (active); in the assay on UO-31 it was 0.205 µM (active).
With `CN(C)CCNC(=O)c1cc([N+](=O)[O-])cc2ccc(-c3ccccc3)nc12`, the GI50 with COLO 205 was 6.05 µM (inactive); in the assay with HCC 2998 it was 7.36 µM (inactive); with HOP-62, 12.9 µM (inactive); in the assay with K562, 17.1 µM (inactive); with Malme-3M it was 6.59 µM (inactive); with OVCAR-4, 5.55 µM (inactive). Moreover, the GI50 in the assay on SF-295 was 8.79 µM (inactive); with SF-539, 7.66 µM (inactive); with SK-MEL-28, 9.33 µM (inactive); with SK-MEL-5, 4.7 µM (inactive); in the assay on SNB-75, 5.64 µM (inactive); in the assay with U-251, 10.2 µM (inactive). Besides, the GI50 is 4.62 µM (inactive) with UACC-62 and 2.9 µM (inactive) in the assay on UO-31.
`O=C(CC1(O)C(=O)Nc2ccccc21)c1ccc(O)cc1O` (centres undefined): the GI50 in the assay on COLO 205, in the assay with HOP-62, in the assay on K562, in the assay with MOLT-4, in the assay with Malme-3M and with OVCAR-4 was > 100 µM (inactive) each time. Moreover, the GI50 in the assay on SF-295, with SF-539, in the assay on SK-MEL-28, in the assay with SK-MEL-5, in the assay with SNB-75 and in the assay on UACC-62 was > 100 µM (inactive) in each case. Also, the GI50 in the assay on UO-31 was > 100 µM (inactive).
Take `Nc1ncnc2c1ncn2C1CC(OC2CCCCO2)C(CO)O1` (centres undefined): the GI50 with COLO 205 is > 100 µM (inactive); in the assay on HCC 2998, > 100 µM (inactive); in the assay on HOP-62 it was > 100 µM (inactive); in the assay on K562, > 100 µM (inactive); in the assay on MOLT-4, 61.8 µM (inactive); in the assay with Malme-3M, > 100 µM (inactive). The GI50 with OVCAR-4, in the assay on SF-295, with SF-539, in the assay on SK-MEL-28, in the assay on SR and with U-251 was > 100 µM (inactive) each time. Further, the GI50 in the assay with UO-31 is > 100 µM (inactive).
For the compound `CCOc1cccc2c1N[S@@](=O)S2`, the GI50 in the assay with K562 was 53.3 µM (inactive); in the assay on MOLT-4, 55.3 µM (inactive); with Malme-3M, > 100 µM (inactive); in the assay on SF-295 it was 80.4 µM (inactive); in the assay on SF-539, > 100 µM (inactive); with SK-MEL-28 it was > 100 µM (inactive). For the same compound, the GI50 in the assay on SNB-75 was > 100 µM (inactive); in the assay with SR, 74.8 µM (inactive); in the assay on U-251, 47.8 µM (inactive); with UACC-62, 49.2 µM (inactive); with UO-31 it was 98.4 µM (inactive).
In the case of `Cc1c2cc[n+](COC(=O)c3ccccc3)cc2c(C)c2c1[nH]c1ccccc12`, the GI50 in the assay with COLO 205 is 0.43 µM (active); in the assay with HOP-62, 1.31 µM (inactive); with K562 it was 0.388 µM (active); in the assay with MOLT-4, 0.255 µM (active); in the assay on Malme-3M, 1.46 µM (inactive); in the assay with OVCAR-4, 0.587 µM (active). Besides, the GI50 in the assay with SF-295 was 0.491 µM (active); in the assay on SF-539, 0.416 µM (active); with SK-MEL-28 it was 1.64 µM (inactive); in the assay on SK-MEL-5 it was 1.36 µM (inactive); with SR, 0.212 µM (active); in the assay on U-251 it was 0.515 µM (active). The GI50 in the assay with UACC-62 was 1.5 µM (inactive); in the assay with UO-31, 2.03 µM (inactive).
In the case of `O=c1cc(-c2ccccc2)[nH]c2cc(F)cc(F)c12`, the GI50 was 16.1 µM (inactive) in the assay with COLO 205; 26.5 µM (inactive) with HOP-62; 11.9 µM (inactive) in the assay on K562; 75.5 µM (inactive) in the assay with MOLT-4; 16.7 µM (inactive) in the assay with Malme-3M; > 100 µM (inactive) with OVCAR-4. Also, the GI50 in the assay with SF-295 was 25.1 µM (inactive); in the assay with SF-539 it was 24.4 µM (inactive); in the assay on SK-MEL-28, 27.2 µM (inactive); in the assay with SK-MEL-5, 10.1 µM (inactive); in the assay with SNB-75 it was 14.8 µM (inactive); in the assay with SR it was 3.75 µM (inactive). Also, the values for the GI50 with U-251, with UACC-62 and in the assay on UO-31 were 29.1 µM (inactive), 16.1 µM (inactive) and 37 µM (inactive), respectively.
Take `O=C(Nc1cccc(Cl)c1)C(=O)C(C(=O)c1ccc2ccccc2c1)C1OC(=O)c2ccccc21` (centres undefined): the GI50 is 17.1 µM (inactive) in the assay with COLO 205; 10.2 µM (inactive) with HCC 2998; 16.8 µM (inactive) in the assay with HOP-62; 16.1 µM (inactive) in the assay on K562; 3.99 µM (inactive) with MOLT-4; 13.1 µM (inactive) in the assay on Malme-3M. Further, the GI50 was 8.41 µM (inactive) in the assay on OVCAR-4; 7.8 µM (inactive) in the assay with SF-539; 9.62 µM (inactive) in the assay on SK-MEL-28; 14.7 µM (inactive) in the assay on SK-MEL-5; 5.31 µM (inactive) in the assay with SNB-75; 5.4 µM (inactive) with U-251. For the same compound, the figures for the GI50 in the assay with UACC-62 and in the assay with UO-31 were 15.3 µM (inactive) and 14.1 µM (inactive), respectively.
With `CN[C@@H](C)[C@H](N)c1ccccc1`, the GI50 with COLO 205, in the assay on HCC 2998, in the assay with K562, in the assay on MOLT-4, in the assay with SF-295 and with SF-539 was > 100 µM (inactive) in each case. Further, the GI50 with SK-MEL-28, with SK-MEL-5, in the assay on SNB-75, in the assay with U-251, in the assay with UACC-62 and with UO-31 was > 100 µM (inactive) each time.

These data come from ChEMBL document CHEMBL1201862, “PubChem BioAssay data set” (2004).
